This note sets out measurements from patent US10081615B2, “Sulfamate derivative compounds for use in treating or alleviating pain” (Bio-Pharm Solutions Co., Ltd., priority 2013, dated 2018).

The test system of one assay is SNL model. Description: Antiallodynic activity in the Chung model (SNL, Spinal Nerve Ligation; von Frey). It is filed as in vivo, Sprague-Dawley rats.
Assay [1] has as its system acetic acid-induced writhes. Description: Writhing test (acetic acid). It is filed as in vivo, ICR mice. As for the experimental part: To examine the pain relief effect of the sulfamate derivative compounds, a writhing test was referring to Fischer, L. G. et al. (2008).
ICR mice (male, 24-28 g; Orient Bio, Korea) were habituated before test in test room for 1 hour. Animals were fasted for 2 hr before administration of compounds. […] All compounds were dissolved in a vehicle of 30% (v/v) PEG 400 or 20% (v/v) Tween 80. The control group was treated with the vehicle without compounds.
[…] Animals were habituated in the cage for 5 min. 5 min after habituation, the number of writhes (abdominal constriction) was counted for 15 minutes referring to Korzeniewska-Rybicka, I. et al. (1998) and compared with that of the control.

Another assay concerns STZ-induced pain model. Description: Antiallodynic activity in the streptozotocin (STZ)-induced diabetic pain model (von Frey). It is filed as in vivo, Sprague-Dawley rats. The conditions noted are these: 0.5 h; for ED50: ip. As for the experimental part: Male, Sprague-Dawley rats (200-220 g, Nara Bio, Korea) were habituated for 1 week before surgery and allowed free access to food and water throughout the experimentation. Room temperature and humidity were maintained at 24±2° C. and 50±10%, respectively.
The STZ-induced diabetic pain model was established with a modified method of Rakieten et al. (1963) and Bertrand Aubel et al. (2004). All animals were fasted for 4 to 6 hr prior to STZ injection. STZ (sigma, USA) was dissolved in 20 mM sodium citrate buffer, pH 5.5 (Sigma. USA) and intraperitoneally injected at 75 mg/kg, 4 ul/g by bodyweight into the rats. Sham controls were injected with same volume of 20 mM sodium citrate buffer, pH 5.5, and vehicle controls were identical to STZ model except for administration of vehicles without treatment. Rats were supplied with 10% sucrose water for 2 days to protect against sudden hypoglycemia, 3 days later, the induction of diabetes was checked by the measurement of tail vein blood glucose levels with a blood glucose meter. (LifeScan OneTouch Ultra, USA). […]
Tactile sensitivity (mechanical allodynia) was evaluated using von Frey monofilaments before and after treatment of the compound of Examples and the animals were included in the study only if the withdrawal threshold value was less than 4 g. […] The tactile sensitivity for the ipsilateral hind paw was measured using the up-and-down method (Dixon, 1980) with seven von Frey monofilaments (0.4, 1, 2, 4, 6, 8, and 15 g) in 3 trials. […] The 50% paw withdrawal threshold for each paw was calculated using the following formula: [Xth] log=[vFr] log+ky where [vFr] is the force of the last von Frey used, k=0.2249 which is the average interval (in log units) between the von Frey monofilaments, and y is a value that depends upon the pattern of withdrawal responses (Dixon, 1980). […]
The relative values compared to the sham (% control) were calculated and shown in Table 9, which show an antiallodynic effect of the compound of examples on STZ-induced pain model in rats.

Where [2] appears, read: Rattus norvegicus, po, 1 h, read-out: SNL model: ED50 mg/kg.
[3] abbreviates: Mus musculus, po, 0.5 h, read-out: Writh test: ED50 mg/kg.

Read-outs that look alike come from different tables or passages of the source.

On to `CC1(C)Oc2ccccc2[C@@H](COS(N)(=O)=O)O1` [Example 2, ((S)-2,2-dimethyl-4H-benzo[d][1,3]dioxin-4-yl)methyl sulfamate], for which the ED50 in the assay with SNL model (rat, oral, 1 h, read-out: SNL model: ED50) stood at 4.5 mg/kg; in assay [1] (mouse, oral, 1 h, read-out: Writh test: ED50), 152 mg/kg; with STZ-induced pain model (rat, intraperitoneal, read-out: STZ model: ED50), 27.4 mg/kg.
For `CC1(C)Oc2ccccc2[C@H](COS([NH-])(=O)=O)O1.[Na+]` [Example 58, Sodium (R)-(((2,2-dimethyl-4H-benzo[d][1,3]dioxin-4-yl)methoxy)sulfonyl)amide Trihydrate], the ED50 in the assay on SNL model (setting [2]) was 8.9 mg/kg.
Take `CC1(C)Oc2ccccc2C(COS([NH-])(=O)=O)O1.[Na+]` (stereo not drawn) [Example 60, Sodium (((2,2-dimethyl-4H-benzo[d][1,3]dioxin-4-yl)methoxy)sulfonyl)amide Trihydrate]: the ED50 in the assay on SNL model (setting [2]) was found to be 3.5 mg/kg; in assay [1] (setting [3]), 21 mg/kg; in the assay with STZ-induced pain model (Rattus norvegicus, read-out: STZ model: ED50 mg/kg) it was 16.1 mg/kg.
As for `[NH-]S(=O)(=O)OC[C@H]1OC2(CCCC2)Oc2ccccc21.[Na+]` [Example 65, Sodium (S)-(((4H-spiro[benzo[d][1,3]dioxine-2,1′-cyclopentan]-4-yl)methoxy)sulfonyl)amide], the ED50 in the assay with SNL model (Rattus norvegicus, po, 0.5 h, read-out: SNL model: ED50 mg/kg) was 3.4 mg/kg; in assay [1] (setting [3]), 55.1 mg/kg. The “STZ model: effect (%) compared to control” value in the assay on STZ-induced pain model (rat, intraperitoneal, 100 mg/kg administered) is listed as “(25.7%, 0.5 h)”.
Take `CC1(C)Oc2ccccc2[C@H](COS([NH-])(=O)=O)O1.[K+]` [Example 70, Potassium (R)-(((2,2-dimethyl-4H-benzo[d][1,3]dioxin-4-yl)methoxy)sulfonyl)amide]: the response vs control in vivo at 3.5 mg/kg in the assay with SNL model (Rattus norvegicus, po, 1 h, read-out: SNL model: effect (%) compared to control, rat, oral, 3.5 mg/kg administered, 1 h) amounted to 46.7%. In addition, in assay [1] (mouse, oral, 80 mg/kg administered, 1 hr), the “Writh test: effect (%) compared to control” value is reported as “(29.1%, 1 hr)”.
